Measurements reported in ChEMBL document CHEMBL4800730 (2021).
Calls of active or inactive are those of the source. No cut-off for these calls is given here.

What was measured:
[1] = target: Beta-2 adrenergic receptor (Homo sapiens) (UniProt P07550); conditions: Compound concentration 10.0 uM
[2] = target: Alpha-1D adrenergic receptor (Homo sapiens) (UniProt P25100); conditions: Compound concentration 10.0 uM
[3] = target: GABA-A receptor; anion channel (Rattus norvegicus) (UniProt O09028+P15431+P18506+P18508+P19969+P20236+P23574+P23576+P28471+P28473+P30191+P62813+P63079+P63138+Q91ZM7+Q9ES14); conditions: Compound concentration 10.0 uM
[4] = GPCRScan assay: inhibition of GABA/PBR; parameters: species or system Rattus norvegicus; radioligand conc. used [nm] 0.3 – 2.0, parental cells brain tissue
[5] = target: 5-hydroxytryptamine receptor 5A (Homo sapiens) (UniProt P47898); conditions: Compound concentration 10.0 uM
[6] = target: Serine/threonine-protein kinase D3 (Homo sapiens) (UniProt O94806); experiment: PRKCN (PKD3) SelectScreen Kinase panel (LifeTechnologies); conditions: Compound concentration 1.0 uM
[7] = target: Histamine H1 receptor (Homo sapiens) (UniProt P35367); conditions: Compound concentration 10.0 uM
[8] = target: Serine/threonine-protein kinase MARK1 (Homo sapiens) (UniProt Q9P0L2); experiment: MARK1 (MARK) SelectScreen Kinase panel (LifeTechnologies); conditions: Compound concentration 1.0 uM
[9] = target: Tyrosine-protein kinase SYK (Homo sapiens) (UniProt P43405); experiment: SYK SelectScreen Kinase panel (LifeTechnologies); conditions: Compound concentration 1.0 uM
[10] = target: Hepatocyte growth factor receptor (Homo sapiens) (UniProt P08581); experiment: MET (cMet) SelectScreen Kinase panel (LifeTechnologies); conditions: Compound concentration 1.0 uM
[11] = target: Receptor-type tyrosine-protein kinase FLT3 (Homo sapiens) (UniProt P36888); experiment: FLT3 SelectScreen Kinase panel (LifeTechnologies); conditions: Compound concentration 1.0 uM
[12] = target: Serine/threonine-protein kinase Sgk1 (Homo sapiens) (UniProt O00141); experiment: SGK (SGK1) SelectScreen Kinase panel (LifeTechnologies); conditions: Compound concentration 1.0 uM
[13] = target: Proto-oncogene tyrosine-protein kinase Src (Homo sapiens) (UniProt P12931); experiment: SRC SelectScreen Kinase panel (LifeTechnologies); conditions: Compound concentration 1.0 uM
[14] = target: Epidermal growth factor receptor (Homo sapiens) (UniProt P00533); experiment: EGFR (ErbB1) SelectScreen Kinase panel (LifeTechnologies); conditions: Compound concentration 1.0 uM
[15] = target: Histamine H3 receptor (Homo sapiens) (UniProt Q9Y5N1); conditions: Compound concentration 10.0 uM
[16] = target: Serine/threonine-protein kinase PAK 1 (Homo sapiens) (UniProt Q13153); experiment: PAK1 SelectScreen Kinase panel (LifeTechnologies); conditions: Compound concentration 1.0 uM
[17] = target: Aurora kinase A (Homo sapiens) (UniProt O14965); experiment: AURKA (Aurora A) SelectScreen Kinase panel (LifeTechnologies); conditions: Compound concentration 1.0 uM
[18] = target: Serine/threonine-protein kinase D1 (Homo sapiens) (UniProt Q15139); experiment: PRKD1 (PKC mu) SelectScreen Kinase panel (LifeTechnologies); conditions: Compound concentration 1.0 uM
[19] = target: 5-hydroxytryptamine receptor 1D (Homo sapiens) (UniProt P28221); conditions: Compound concentration 10.0 uM
MCF7 = experiment: CellTiter-Glo luminescent cell viability assay (CTG) with MCF-7 cells; assay type: functional, cell-based; conditions: Homo sapiens
[20] = target: D(3) dopamine receptor (Homo sapiens) (UniProt P35462); conditions: Compound concentration 10.0 uM
[21] = target: Protein kinase C theta type (Homo sapiens) (UniProt Q04759); experiment: PRKCQ (PKC theta) SelectScreen Kinase panel (LifeTechnologies); conditions: Compound concentration 1.0 uM
[22] = target: Serine/threonine-protein kinase PLK1 (Homo sapiens) (UniProt P53350); experiment: PLK1 SelectScreen Kinase panel (LifeTechnologies); conditions: Compound concentration 1.0 uM
[23] = target: Proto-oncogene tyrosine-protein kinase receptor Ret (Homo sapiens) (UniProt P07949); experiment: RET SelectScreen Kinase panel (LifeTechnologies); conditions: Compound concentration 1.0 uM
[24] = target: Protein kinase C beta type (Homo sapiens) (UniProt P05771); experiment: PRKCB1 (PKC beta I) SelectScreen Kinase panel (LifeTechnologies); conditions: Compound concentration 1.0 uM
[25] = target: Beta-3 adrenergic receptor (Homo sapiens) (UniProt P13945); conditions: Compound concentration 10.0 uM
[26] = target: G protein-coupled receptor kinase 5 (Homo sapiens) (UniProt P34947); experiment: GRK5 SelectScreen Kinase panel (LifeTechnologies); conditions: Compound concentration 1.0 uM
[27] = target: Tyrosine-protein kinase BTK (Homo sapiens) (UniProt Q06187); experiment: BTK SelectScreen Kinase panel (LifeTechnologies); conditions: Compound concentration 1.0 uM
[28] = target: Tyrosine-protein kinase TXK (Homo sapiens) (UniProt P42681); experiment: TXK SelectScreen Kinase panel (LifeTechnologies); conditions: Compound concentration 1.0 uM
[29] = target: Alpha-2A adrenergic receptor (Homo sapiens) (UniProt P08913); conditions: Compound concentration 10.0 uM
[30] = target: Ribosomal protein S6 kinase beta-1 (Homo sapiens) (UniProt P23443); experiment: RPS6KB1 (p70S6K) SelectScreen Kinase panel (LifeTechnologies); conditions: Compound concentration 1.0 uM
[31] = target: Serine/threonine-protein kinase PAK 4 (Homo sapiens) (UniProt O96013); experiment: PAK4 SelectScreen Kinase panel (LifeTechnologies); conditions: Compound concentration 1.0 uM
[32] = target: 5-hydroxytryptamine receptor 6 (Homo sapiens) (UniProt P50406); conditions: Compound concentration 10.0 uM
[33] = target: Cyclin-dependent kinase 1/cyclin B (Homo sapiens) (UniProt P06493+P14635+Q8WWL7+O95067); experiment: CDK1/cyclin B SelectScreen Kinase panel (LifeTechnologies); assay type: protein-complex assay; conditions: Compound concentration 1.0 uM
[34] = target: Serine/threonine-protein kinase D2 (Homo sapiens) (UniProt Q9BZL6); experiment: PRKD2 (PKD2) SelectScreen Kinase panel (LifeTechnologies); conditions: Compound concentration 1.0 uM
[35] = target: Serine/threonine-protein kinase N1 (Homo sapiens) (UniProt Q16512); experiment: PKN1 (PRK1) SelectScreen Kinase panel (LifeTechnologies); conditions: Compound concentration 1.0 uM
[36] = target: Tyrosine-protein kinase ABL1 (Homo sapiens) (UniProt P00519); experiment: ABL1 SelectScreen Kinase panel (LifeTechnologies); conditions: Compound concentration 1.0 uM
[37] = target: Serine/threonine-protein kinase MARK2 (Homo sapiens) (UniProt Q7KZI7); experiment: MARK2 SelectScreen Kinase panel (LifeTechnologies); conditions: Compound concentration 1.0 uM
[38] = target: Sodium-dependent dopamine transporter (Homo sapiens, UniProt Q01959); experiment: GPCRScan assay: inhibition of DAT; parameters: radioligand conc. used [nm] 3.6 – 16.0, parental cells stable HEK
[39] = target: AMP-activated protein kinase (AMPK) alpha-1/beta-1/gamma-1 (Homo sapiens) (UniProt P54619+Q9Y478+Q13131); experiment: AMPK A1/B1/G1 SelectScreen Kinase panel (LifeTechnologies); assay type: protein-complex assay; conditions: Compound concentration 1.0 uM
[40] = target: Insulin-like growth factor 1 receptor (Homo sapiens) (UniProt P08069); experiment: IGF1R SelectScreen Kinase panel (LifeTechnologies); conditions: Compound concentration 1.0 uM
[41] = target: Alpha-1B adrenergic receptor (Homo sapiens) (UniProt P35368); conditions: Compound concentration 10.0 uM
[42] = target: Mitogen-activated protein kinase 3 (Homo sapiens) (UniProt P27361); experiment: MAPK3 (ERK1) SelectScreen Kinase panel (LifeTechnologies); conditions: Compound concentration 1.0 uM

Sequence of Sodium-dependent dopamine transporter (Q01959 whole entry): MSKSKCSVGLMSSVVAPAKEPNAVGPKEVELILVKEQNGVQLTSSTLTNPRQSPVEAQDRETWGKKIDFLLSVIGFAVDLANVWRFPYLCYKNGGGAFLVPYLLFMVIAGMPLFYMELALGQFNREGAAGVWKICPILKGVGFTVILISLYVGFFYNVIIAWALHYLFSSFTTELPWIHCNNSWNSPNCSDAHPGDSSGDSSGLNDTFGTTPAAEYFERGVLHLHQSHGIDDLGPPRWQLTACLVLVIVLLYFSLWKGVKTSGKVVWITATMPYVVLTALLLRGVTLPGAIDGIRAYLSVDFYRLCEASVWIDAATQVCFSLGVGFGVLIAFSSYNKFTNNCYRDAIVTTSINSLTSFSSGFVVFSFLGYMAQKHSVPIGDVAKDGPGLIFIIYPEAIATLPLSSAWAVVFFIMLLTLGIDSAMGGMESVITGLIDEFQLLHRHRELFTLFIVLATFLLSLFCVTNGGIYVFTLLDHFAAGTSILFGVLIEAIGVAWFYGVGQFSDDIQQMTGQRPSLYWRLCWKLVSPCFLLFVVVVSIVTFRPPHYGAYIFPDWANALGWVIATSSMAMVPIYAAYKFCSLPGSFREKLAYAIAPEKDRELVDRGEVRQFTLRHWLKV
Sequence of Serine/threonine-protein kinase PLK1 (Homo sapiens) (P53350 whole entry): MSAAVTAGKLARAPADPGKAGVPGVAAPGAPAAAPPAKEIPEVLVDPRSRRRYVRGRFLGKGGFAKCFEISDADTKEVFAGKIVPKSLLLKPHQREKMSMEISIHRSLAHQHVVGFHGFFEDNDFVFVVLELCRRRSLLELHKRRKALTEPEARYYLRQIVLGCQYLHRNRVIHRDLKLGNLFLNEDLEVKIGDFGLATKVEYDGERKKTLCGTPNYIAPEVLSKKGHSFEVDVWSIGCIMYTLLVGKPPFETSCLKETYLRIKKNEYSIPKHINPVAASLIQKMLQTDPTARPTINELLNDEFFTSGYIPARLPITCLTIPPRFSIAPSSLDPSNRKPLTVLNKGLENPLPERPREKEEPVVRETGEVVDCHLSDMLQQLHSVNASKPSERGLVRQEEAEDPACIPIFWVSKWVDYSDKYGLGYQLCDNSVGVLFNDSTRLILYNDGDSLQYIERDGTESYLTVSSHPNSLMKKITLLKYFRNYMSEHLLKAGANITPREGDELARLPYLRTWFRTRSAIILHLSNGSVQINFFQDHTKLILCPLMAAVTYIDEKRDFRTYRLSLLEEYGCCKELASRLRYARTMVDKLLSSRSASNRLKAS
Sequence of Serine/threonine-protein kinase PAK 1 (Homo sapiens) (Q13153 whole entry): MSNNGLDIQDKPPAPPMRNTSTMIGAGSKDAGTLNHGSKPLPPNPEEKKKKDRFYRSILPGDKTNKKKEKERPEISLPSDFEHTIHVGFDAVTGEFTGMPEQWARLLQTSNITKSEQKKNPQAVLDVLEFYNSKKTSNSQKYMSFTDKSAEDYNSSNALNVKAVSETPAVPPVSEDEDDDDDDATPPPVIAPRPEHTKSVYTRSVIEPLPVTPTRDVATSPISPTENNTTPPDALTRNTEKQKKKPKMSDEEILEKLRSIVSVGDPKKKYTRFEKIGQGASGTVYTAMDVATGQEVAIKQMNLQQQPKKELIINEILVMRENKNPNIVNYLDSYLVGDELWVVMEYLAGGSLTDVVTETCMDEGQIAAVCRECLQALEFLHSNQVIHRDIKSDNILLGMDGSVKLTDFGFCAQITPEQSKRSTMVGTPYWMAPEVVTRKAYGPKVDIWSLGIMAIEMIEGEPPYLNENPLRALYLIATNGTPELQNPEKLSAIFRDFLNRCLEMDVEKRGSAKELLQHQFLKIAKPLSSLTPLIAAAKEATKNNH
Sequence of Beta-3 adrenergic receptor (Homo sapiens) (P13945 whole entry, looked up): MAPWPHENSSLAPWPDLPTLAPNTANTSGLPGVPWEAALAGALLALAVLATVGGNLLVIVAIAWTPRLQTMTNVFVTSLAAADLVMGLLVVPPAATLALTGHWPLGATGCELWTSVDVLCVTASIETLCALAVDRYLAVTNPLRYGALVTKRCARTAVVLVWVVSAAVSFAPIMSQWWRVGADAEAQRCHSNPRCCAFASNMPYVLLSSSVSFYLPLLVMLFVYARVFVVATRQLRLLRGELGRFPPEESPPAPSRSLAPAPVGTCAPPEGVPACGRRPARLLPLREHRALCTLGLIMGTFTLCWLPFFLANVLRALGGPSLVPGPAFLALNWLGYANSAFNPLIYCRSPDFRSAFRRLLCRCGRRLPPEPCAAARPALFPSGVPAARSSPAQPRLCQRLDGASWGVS
Sequence of Alpha-2A adrenergic receptor (Homo sapiens) (P08913 whole entry): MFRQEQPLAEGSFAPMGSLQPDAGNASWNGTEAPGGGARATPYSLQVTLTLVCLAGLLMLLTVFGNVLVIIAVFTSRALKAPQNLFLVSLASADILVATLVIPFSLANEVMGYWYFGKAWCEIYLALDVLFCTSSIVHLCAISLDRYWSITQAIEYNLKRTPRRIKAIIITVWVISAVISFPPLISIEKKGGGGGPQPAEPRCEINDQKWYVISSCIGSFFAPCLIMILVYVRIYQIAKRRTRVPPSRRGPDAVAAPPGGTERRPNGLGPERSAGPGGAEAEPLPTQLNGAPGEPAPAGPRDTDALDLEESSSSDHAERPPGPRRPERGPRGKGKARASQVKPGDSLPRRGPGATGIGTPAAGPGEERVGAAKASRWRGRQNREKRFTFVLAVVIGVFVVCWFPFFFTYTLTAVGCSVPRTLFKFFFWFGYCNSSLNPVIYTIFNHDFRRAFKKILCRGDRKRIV
Sequence of Serine/threonine-protein kinase D3 (Homo sapiens) (O94806 whole entry): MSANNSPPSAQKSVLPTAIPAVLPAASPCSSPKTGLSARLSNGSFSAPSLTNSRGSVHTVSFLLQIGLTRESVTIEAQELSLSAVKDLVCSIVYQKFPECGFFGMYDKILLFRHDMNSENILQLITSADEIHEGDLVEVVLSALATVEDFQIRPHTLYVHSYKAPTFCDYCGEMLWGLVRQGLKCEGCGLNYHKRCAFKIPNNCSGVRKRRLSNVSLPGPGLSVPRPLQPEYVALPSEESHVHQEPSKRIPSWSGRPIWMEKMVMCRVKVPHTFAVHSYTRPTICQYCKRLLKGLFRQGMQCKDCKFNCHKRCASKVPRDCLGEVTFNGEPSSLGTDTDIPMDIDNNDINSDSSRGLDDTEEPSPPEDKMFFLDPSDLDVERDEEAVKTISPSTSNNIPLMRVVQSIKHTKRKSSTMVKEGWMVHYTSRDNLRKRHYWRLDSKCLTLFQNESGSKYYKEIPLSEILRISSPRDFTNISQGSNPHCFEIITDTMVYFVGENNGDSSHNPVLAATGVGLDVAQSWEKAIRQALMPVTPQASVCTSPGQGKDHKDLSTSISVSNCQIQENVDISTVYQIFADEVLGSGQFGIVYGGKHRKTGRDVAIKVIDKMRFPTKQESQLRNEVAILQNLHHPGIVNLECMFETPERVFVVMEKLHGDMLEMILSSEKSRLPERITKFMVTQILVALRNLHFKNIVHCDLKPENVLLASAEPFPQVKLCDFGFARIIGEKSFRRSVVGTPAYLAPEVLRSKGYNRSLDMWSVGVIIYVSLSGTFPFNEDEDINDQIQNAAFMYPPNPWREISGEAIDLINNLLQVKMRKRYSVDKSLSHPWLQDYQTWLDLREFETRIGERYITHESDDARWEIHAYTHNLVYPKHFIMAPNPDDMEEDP
Sequence of Insulin-like growth factor 1 receptor (Homo sapiens) (P08069 31-736 limits assumed): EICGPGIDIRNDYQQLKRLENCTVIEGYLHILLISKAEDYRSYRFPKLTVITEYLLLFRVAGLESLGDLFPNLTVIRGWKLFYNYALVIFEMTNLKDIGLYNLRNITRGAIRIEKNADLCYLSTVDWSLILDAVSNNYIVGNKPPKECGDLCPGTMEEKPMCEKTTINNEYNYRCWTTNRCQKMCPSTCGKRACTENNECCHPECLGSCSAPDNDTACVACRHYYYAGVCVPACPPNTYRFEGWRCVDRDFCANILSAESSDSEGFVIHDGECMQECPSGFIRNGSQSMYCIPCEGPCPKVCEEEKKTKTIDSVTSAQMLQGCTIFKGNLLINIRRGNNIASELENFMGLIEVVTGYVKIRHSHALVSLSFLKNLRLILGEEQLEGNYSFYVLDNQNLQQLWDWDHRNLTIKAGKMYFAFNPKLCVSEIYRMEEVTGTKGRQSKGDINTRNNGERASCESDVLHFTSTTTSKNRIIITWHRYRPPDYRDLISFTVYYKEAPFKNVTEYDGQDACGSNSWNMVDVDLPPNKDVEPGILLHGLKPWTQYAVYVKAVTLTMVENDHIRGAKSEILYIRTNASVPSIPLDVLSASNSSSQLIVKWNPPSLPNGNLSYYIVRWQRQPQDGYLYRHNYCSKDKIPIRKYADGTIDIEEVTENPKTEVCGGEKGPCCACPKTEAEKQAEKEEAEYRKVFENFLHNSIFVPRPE
Sequence of Insulin-like growth factor 1 receptor (Homo sapiens) (P08069 741-1367 limits assumed): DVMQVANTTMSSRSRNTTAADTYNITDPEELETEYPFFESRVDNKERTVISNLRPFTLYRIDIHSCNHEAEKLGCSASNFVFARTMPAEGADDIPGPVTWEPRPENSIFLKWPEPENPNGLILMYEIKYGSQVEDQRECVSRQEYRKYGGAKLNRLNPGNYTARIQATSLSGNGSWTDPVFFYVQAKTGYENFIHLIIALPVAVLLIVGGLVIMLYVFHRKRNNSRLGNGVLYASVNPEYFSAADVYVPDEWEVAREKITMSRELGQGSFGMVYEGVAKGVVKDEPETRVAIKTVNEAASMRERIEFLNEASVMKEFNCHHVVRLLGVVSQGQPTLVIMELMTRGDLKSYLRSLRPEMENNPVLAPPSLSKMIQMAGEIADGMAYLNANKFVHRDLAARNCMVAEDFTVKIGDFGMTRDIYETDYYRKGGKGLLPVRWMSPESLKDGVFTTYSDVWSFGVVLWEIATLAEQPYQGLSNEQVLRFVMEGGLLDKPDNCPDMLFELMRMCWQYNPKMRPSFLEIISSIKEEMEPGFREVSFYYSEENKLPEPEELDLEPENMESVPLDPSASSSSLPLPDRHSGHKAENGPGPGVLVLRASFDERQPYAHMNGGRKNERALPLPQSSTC

Compound: C=CC(=O)Nc1ccc2[nH]c(=O)n(C3CCN(Cc4ccc(-c5nc6cc[nH]c(=O)c6cc5-c5ccccc5)cc4)CC3)c2c1 [Borussertib]
- inhibition [1]: 18.3%
- inhibition [2]: 22.1%
- inhibition [3]: 12.3%
- Ki [4]: 0.0573 µM
- pKi [4]: 7.24
- inhibition [5]: 19.4%
- inhibition [6]: 14%
- inhibition [7]: 23.8%
- inhibition [8]: -7%
- inhibition [9]: -3%
- inhibition [10]: -2%
- inhibition [11]: 17%
- inhibition [12]: 20%
- inhibition [13]: 10%
- inhibition [14]: 2%
- inhibition [15]: 6.51%
- inhibition [16]: -9%
- inhibition [17]: 15%
- inhibition [18]: 10%
- inhibition [19]: 12.1%
- EC50 (MCF7): 0.28 µM (active)
- inhibition [20]: 20.9%
- inhibition [21]: 35%
- inhibition [22]: -3%
- inhibition [23]: 7%
- inhibition [24]: -7%
- inhibition [25]: 9.68%
- inhibition [26]: -2%
- inhibition [27]: 6%
- inhibition [28]: 8%
- inhibition [29]: 9.04%
- inhibition [30]: 2%
- inhibition [31]: 7%
- inhibition [32]: -3.73%
- inhibition [33]: 3%
- inhibition [34]: 5%
- inhibition [35]: -4%
- inhibition [36]: 2%
- inhibition [37]: -2%
- Ki ([38]; read-out: Ki): 3.66 µM
- Ki ([38]; read-out: pKi (converted)): 3.63 µM
- inhibition [39]: 14%
- inhibition [40]: -4%
- inhibition [41]: 52.3%
- inhibition [42]: -3%
